According to patent US20250179088A9 (ZYMEWORKS BC INC., priority 2020, published 2025):

Tests used:
TLR7 = target: T1, TLR7 (Homo sapiens, UniProt Q9NYK1); experiment: Reporter gene assay, HEK-Blue TLR7 reporter cells (SEAP)
T1 sequence (Q9NYK1 27-1049): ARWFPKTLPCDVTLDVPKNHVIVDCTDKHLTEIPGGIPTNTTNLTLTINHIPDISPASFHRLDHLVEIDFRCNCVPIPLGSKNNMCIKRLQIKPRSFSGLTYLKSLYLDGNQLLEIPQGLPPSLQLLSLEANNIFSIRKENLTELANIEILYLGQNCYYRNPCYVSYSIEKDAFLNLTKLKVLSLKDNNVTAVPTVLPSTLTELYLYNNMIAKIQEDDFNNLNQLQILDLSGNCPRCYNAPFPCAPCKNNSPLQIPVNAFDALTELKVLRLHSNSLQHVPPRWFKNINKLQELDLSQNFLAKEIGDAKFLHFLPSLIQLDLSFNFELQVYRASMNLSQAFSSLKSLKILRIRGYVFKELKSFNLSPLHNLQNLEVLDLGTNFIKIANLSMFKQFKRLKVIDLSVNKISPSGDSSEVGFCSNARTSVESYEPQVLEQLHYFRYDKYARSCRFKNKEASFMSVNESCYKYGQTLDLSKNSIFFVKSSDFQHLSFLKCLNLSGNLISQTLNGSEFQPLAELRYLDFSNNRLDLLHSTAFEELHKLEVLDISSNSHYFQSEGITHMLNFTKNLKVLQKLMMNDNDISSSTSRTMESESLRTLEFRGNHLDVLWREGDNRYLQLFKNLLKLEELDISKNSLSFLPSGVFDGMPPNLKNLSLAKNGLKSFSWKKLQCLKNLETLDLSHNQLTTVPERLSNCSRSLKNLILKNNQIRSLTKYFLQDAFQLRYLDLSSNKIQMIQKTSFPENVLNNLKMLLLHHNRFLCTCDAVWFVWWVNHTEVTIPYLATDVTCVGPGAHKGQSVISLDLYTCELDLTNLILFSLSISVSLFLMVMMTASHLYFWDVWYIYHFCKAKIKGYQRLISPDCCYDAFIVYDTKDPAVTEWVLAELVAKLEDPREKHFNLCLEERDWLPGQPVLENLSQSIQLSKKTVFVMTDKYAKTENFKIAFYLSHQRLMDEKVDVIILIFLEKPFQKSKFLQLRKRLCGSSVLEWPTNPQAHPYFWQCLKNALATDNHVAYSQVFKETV
Description: (§1) 3×10^4 HEK-Blue™ TLR7 or 3×10^4 TLR8 reporter cells (InvivoGen, San Diego, CA) were treated with titrated (4-fold) amounts of test compound. […] Cells were incubated overnight at 37° C. and 5% CO2, then absorbance (620 and 655 nm) was read on a Synergy™ H1 microplate reader.

PBMCs = experiment: PBMC assay, IL-6 release (HTRF); format: cell-based; conditions: PBMCs from healthy donors, overnight, IL-6 induction by HTRF, average of quadruplicate
Description: Whole peripheral blood was obtained from healthy donors. PBMCs were isolated from peripheral blood by density gradient centrifugation. […] The plasma layer containing PBMCs was poured into a new tube and washed twice. Isolated PBMCs were either used fresh or thawed from previously frozen. 1×10^5 PBMCs were cultured with titrating concentrations of compounds of Formula I overnight followed by assaying for cytokines by homogeneous time resolved fluorescence (HTRF).

TLR8 = target: T2, TLR8 (Homo sapiens, UniProt Q9NR97); experiment: Reporter gene assay, HEK-Blue TLR8 reporter cells (SEAP)
T2 sequence (Q9NR97 27-1041): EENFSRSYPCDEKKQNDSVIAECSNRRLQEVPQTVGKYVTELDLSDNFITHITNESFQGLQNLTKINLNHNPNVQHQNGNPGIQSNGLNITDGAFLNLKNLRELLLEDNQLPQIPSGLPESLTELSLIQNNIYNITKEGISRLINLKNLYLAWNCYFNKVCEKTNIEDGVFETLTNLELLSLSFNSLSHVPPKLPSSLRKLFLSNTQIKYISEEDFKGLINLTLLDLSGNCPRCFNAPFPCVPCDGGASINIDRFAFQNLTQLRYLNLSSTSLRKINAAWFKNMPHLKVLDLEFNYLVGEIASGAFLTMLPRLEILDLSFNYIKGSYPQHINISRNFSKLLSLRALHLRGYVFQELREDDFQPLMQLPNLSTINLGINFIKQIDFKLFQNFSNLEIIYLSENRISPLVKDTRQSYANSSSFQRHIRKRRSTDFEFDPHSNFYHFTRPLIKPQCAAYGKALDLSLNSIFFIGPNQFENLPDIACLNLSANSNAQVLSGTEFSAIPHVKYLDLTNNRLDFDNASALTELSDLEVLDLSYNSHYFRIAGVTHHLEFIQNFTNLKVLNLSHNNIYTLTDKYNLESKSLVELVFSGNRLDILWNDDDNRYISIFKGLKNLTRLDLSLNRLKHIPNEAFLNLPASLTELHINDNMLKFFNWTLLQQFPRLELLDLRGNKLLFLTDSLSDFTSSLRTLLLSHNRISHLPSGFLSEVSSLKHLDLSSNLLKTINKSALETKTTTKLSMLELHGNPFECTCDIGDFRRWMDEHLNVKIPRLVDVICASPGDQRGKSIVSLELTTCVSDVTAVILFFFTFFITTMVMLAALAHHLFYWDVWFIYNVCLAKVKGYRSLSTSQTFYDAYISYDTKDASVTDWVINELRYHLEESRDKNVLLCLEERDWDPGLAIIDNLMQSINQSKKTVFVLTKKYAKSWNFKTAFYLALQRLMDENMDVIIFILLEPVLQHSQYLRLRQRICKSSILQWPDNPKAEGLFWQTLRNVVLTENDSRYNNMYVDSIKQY
Description: as §1

SMILES: CCCCc1nc2c(N)nc3ccsc3c2n1Cc1ccc(CN2CCN(CCNC(=O)OC(C)(C)C)CC2)cc1 [Compound 165, tert-butyl (2-(4-(4-((4-amino-2-butyl-1H-imidazo[4,5-d]thieno[3,2-b]pyridin-1-yl)methyl)benzyl)piperazin-1-yl)ethyl)carbamate]
- EC50 (TLR7): 15 nM
- EC50 (PBMCs): 65 nM
- EC50 (TLR8): > 1000 nM

SMILES: CCCCc1nc2c(N)nc3ccsc3c2n1CCCCCN1CCN(CCN2CCOCC2)CC1 [Compound 176, 2-butyl-1-(5-(4-(2-morpholinoethyl)piperazin-1-yl)pentyl)-1H-imidazo[4,5-d]thieno[3,2-b]pyridin-4-amine]
- EC50 (TLR7): 33 nM
- EC50 (PBMCs): 58 nM
- EC50 (TLR8): > 1000 nM

SMILES: CCCCc1nc2c(N)nc3ccsc3c2n1Cc1ccccc1CNCC(C)(C)O [Compound 225, 1-((2-((4-amino-2-butyl-1H-imidazo[4,5-d]thieno[3,2-b]pyridin-1-yl)methyl)benzyl)amino)-2-methylpropan-2-ol]
- EC50 (TLR7): > 1000 nM
- EC50 (PBMCs): > 1000 nM
- EC50 (TLR8): > 1000 nM

SMILES: CCCCc1nc2c(N)nc3ccsc3c2n1Cc1ncc(CNCC(C)(C)O)s1 [Compound 238, 1-(((2-((4-amino-2-butyl-1H-imidazo[4,5-d]thieno[3,2-b]pyridin-1-yl)methyl)thiazol-5-yl)methyl)amino)-2-methylpropan-2-ol]
- EC50 (TLR7): 420 nM
- EC50 (PBMCs): > 1000 nM
- EC50 (TLR8): > 1000 nM

SMILES: CCCCc1nc2c(N)nc3ccsc3c2n1Cc1ccc(CN2CCC(CNC(=O)OC(C)(C)C)CC2)cc1 [Compound 263, tert-butyl ((1-(4-((4-amino-2-butyl-1H-imidazo[4,5-d]thieno[3,2-b]pyridin-1-yl)methyl)benzyl)piperidin-4-yl)methyl)carbamate]
- EC50 (TLR7): 53 nM
- EC50 (PBMCs): 853 nM
- EC50 (TLR8): > 1000 nM

SMILES: CCCCc1nc2c(N)nc3ccsc3c2n1CCCCCN1CCNCC1 [Compound 182]
- EC50 (TLR7): 24 nM
- EC50 (PBMCs): 160 nM
- EC50 (TLR8): > 1000 nM

SMILES: CCCCc1nc2c(N)nc3ccsc3c2n1Cc1ccc(CNCCCCNC(=O)OCc2ccccc2)cc1 [Compound 260, benzyl (4-((4-((4-amino-2-butyl-1H-imidazo[4,5-d]thieno[3,2-b]pyridin-1-yl)methyl)benzyl)amino)butyl)carbamate]
- EC50 (TLR7): 89 nM
- EC50 (PBMCs): 719 nM
- EC50 (TLR8): > 1000 nM

SMILES: CCCCc1nc2c(N)nc3ccsc3c2n1Cc1ccc(CN(CCN(CCCC)CCCC)CCN(CCCC)CCCC)cc1 [Compound 152, N^1-(4-((4-amino-2-butyl-1H-imidazo[4,5-d]thieno[3,2-b]pyridin-1-yl)methyl)benzyl)-N^2,N^2-dibutyl-N^1-(2-(dibutylamino)ethyl)ethane-1,2-diamine]
- EC50 (TLR7): 67 nM
- EC50 (PBMCs): 59 nM
- EC50 (TLR8): > 1000 nM

SMILES: CCCCc1nc2c(N)nc3ccsc3c2n1Cc1ccccc1CNCCCN1CCN(CCCN)CC1 [Compound 215, 1-(2-(((3-(4-(3-aminopropyl)piperazin-1-yl)propyl)amino)methyl)benzyl)-2-butyl-1H-imidazo[4,5-d]thieno[3,2-b]pyridin-4-amine]
- EC50 (TLR7): > 1000 nM
- EC50 (PBMCs): > 1000 nM
- EC50 (TLR8): > 1000 nM

SMILES: CCCCc1nc2c(N)nc3ccsc3c2n1CCCCCN=[N+]=[N-] [Compound 173, 1-(5-azidopentyl)-2-butyl-1H-imidazo[4,5-d]thieno[3,2-b]pyridin-4-amine]
- EC50 (TLR7): > 1000 nM
- EC50 (PBMCs): > 1000 nM
- EC50 (TLR8): > 1000 nM

SMILES: CCCCc1nc2c(N)nc3ccsc3c2n1Cc1cccc(CN2CCC(c3ccncc3)CC2)c1 [Compound 198, 2-butyl-1-(3-((4-(pyridin-4-yl)piperidin-1-yl)methyl)benzyl)-1H-imidazo[4,5-d]thieno [3,2-b]pyridin-4-amine]
- EC50 (TLR7): 220 nM
- EC50 (PBMCs): 280 nM
- EC50 (TLR8): > 1000 nM

SMILES: CCCCc1nc2c(N)nc3ccsc3c2n1CCCCCNCC(C)(C)N1CCOCC1 [Compound 177, 2-butyl-1-(5-((2-methyl-2-morpholinopropyl)amino)pentyl)-1H-imidazo[4,5-d]thieno [3,2-b]pyridin-4-amine]
- EC50 (TLR7): 24 nM
- EC50 (PBMCs): 270 nM
- EC50 (TLR8): 570 nM

SMILES: CCCCc1nc2c(N)nc3ccsc3c2n1Cc1ccc(CNCCNC(=O)OC(C)(C)C)cc1 [Compound 160, tert-butyl (2-((4-((4-amino-2-butyl-1H-imidazo[4,5-d]thieno[3,2-b]pyridin-1-yl)methyl)benzyl)amino)ethyl)carbamate]
- EC50 (TLR7): 8.7 nM
- EC50 (PBMCs): 32 nM
- EC50 (TLR8): > 1000 nM

SMILES: CCCCc1nc2c(N)nc3ccsc3c2n1CCCCCN1CCC(c2ccncc2)CC1 [Compound 174, 2-butyl-1-(5-(4-(pyridin-4-yl)piperidin-1-yl)pentyl)-1H-imidazo[4,5-d]thieno[3,2-b]pyridin-4-amine]
- EC50 (TLR7): 21 nM
- EC50 (PBMCs): 78 nM
- EC50 (TLR8): > 1000 nM

SMILES: CCCCc1nc2c(N)nc3ccsc3c2n1Cc1cccc(CN(CC)CC)c1 [Compound 199, 2-butyl-1-(3-((diethylamino)methyl)benzyl)-1H-imidazo[4,5-d]thieno[3,2-b]pyridin-4-amine]
- EC50 (TLR7): 130 nM
- EC50 (PBMCs): 330 nM
- EC50 (TLR8): 430 nM

SMILES: CCCCc1nc2c(N)nc3ccsc3c2n1Cc1ccccc1CNCc1cc[nH]c1 [Compound 220, 1-(2-((((1H-pyrrol-3-yl)methyl)amino)methyl)benzyl)-2-butyl-1H-imidazo[4,5-d]thieno [3,2-b]pyridin-4-amine]
- EC50 (TLR7): > 1000 nM
- EC50 (PBMCs): > 1000 nM
- EC50 (TLR8): > 1000 nM

SMILES: CCCCc1nc2c(N)nc3ccsc3c2n1Cc1ccc(CN2CCCCC2)cc1 [Compound 151, 2-butyl-1-(4-(piperidin-1-ylmethyl)benzyl)-1H-imidazo[4,5-d]thieno[3,2-b]pyridin-4-amine]
- EC50 (TLR7): 3.8 nM
- EC50 (PBMCs): 20 nM
- EC50 (TLR8): > 1000 nM

SMILES: CCCCc1nc2c(N)nc3ccsc3c2n1Cc1cccc(Cn2ccnc2)c1 [Compound 229, 1-(3-((1H-imidazol-1-yl)methyl)benzyl)-2-butyl-1H-imidazo[4,5-d]thieno[3,2-b]pyridin-4-amine]
- EC50 (TLR7): 420 nM
- EC50 (PBMCs): > 1000 nM
- EC50 (TLR8): > 1000 nM

SMILES: CCCCc1nc2c(N)nc3ccsc3c2n1Cc1nc(CN2CCN(CCN3CCOCC3)CC2)cs1 [Compound 234, 2-butyl-1-((4-((4-(2-morpholinoethyl)piperazin-1-yl)methyl)thiazol-2-yl)methyl)-1H-imidazo[4,5-d]thieno[3,2-b]pyridin-4-amine]
- EC50 (TLR7): 270 nM
- EC50 (PBMCs): > 1000 nM
- EC50 (TLR8): > 1000 nM

SMILES: CCCCc1nc2c(N)nc3ccsc3c2n1Cc1cccc(CNCc2ccc(CO)cc2)c1 [Compound 204, (4-(((3-((4-amino-2-butyl-1H-imidazo[4,5-d]thieno[3,2-b]pyridin-1-yl)methyl)benzyl)amino)methyl)phenyl)methanol]
- EC50 (TLR7): 68 nM
- EC50 (PBMCs): 200 nM
- EC50 (TLR8): 310 nM
